Laboratory results taken from ChEMBL document CHEMBL3046811, “Syntheses and in vitro biological screening of 1-aryl-10H-[1,2,4]triazolo[3,4:3,4][1,2,4]triazino[5,6-b]indoles” (Med Chem Res, 2013).

Legend:
[1] = test system: Respiratory syncytial virus; test: Antiviral activity against Respiratory syncytial virus infected African green monkey Vero 76 cells assessed as reduction in plaque number treated after viral infection measured after 5 days by plaque reduction assay; assay type: functional, organism-based; details: human respiratory syncytial virus, 120 h
[2] = test system: Bovine viral diarrhea virus 1; test: Antiviral activity against Bovine viral diarrhea virus 1 infected bovine MDBK cells assessed as protection against virus-induced cytopathogenicity treated 1 hr after viral infection measured after 3-4 days by MTT method; assay type: functional, organism-based; details: Bovine viral diarrhea virus isolates and strains
[3] = Selectivity index, ratio of CC50 for bovine MDBK cells to EC50 for BVDV infected in bovine MDBK cells
Yellow fever virus = test: Antiviral activity against Yellow fever virus infected Syrian hamster BHK-21 cells assessed as protection against virus-induced cytopathogenicity treated 1 hr after viral infection measured after 3-4 days by MTT method; assay type: functional, organism-based
[4] = Cytotoxicity against Homo sapiens (human) MT4 cells assessed as inhibition of cell vaibility after 96 hr by MTT assay; assay type: cell-based
Coxsackievirus B2 = test: Antiviral activity against Human coxsackievirus B2 infected in African green monkey Vero 76 cells assessed as reduction in plaque number treated after viral infection measured after 3 days by plaque reduction assay; assay type: functional, organism-based; details: Enterovirus B, 72 h
[5] = Cytotoxicity against Bos taurus (bovine) MDBK cells assessed as inhibition of cell viability after 48 to 120 hr by MTT assay; assay type: cell-based; details: cattle
[6] = test system: Vesicular stomatitis virus; test: Antiviral activity against Vesicular stomatitis virus infected African green monkey Vero 76 cells assessed as reduction in plaque number treated after viral infection measured after 2 days by plaque reduction assay; assay type: functional, organism-based; details: 48 h
[7] = test system: Human immunodeficiency virus 1; test: Antiviral activity against Human immunodeficiency virus 1 infected human MT4 cells assessed as protection against virus-induced cytopathogenicity treated before viral infection measured after 4 days by MTT assay; assay type: functional, organism-based; details: Human immunodeficiency virus 1, MT4, 96 h
[8] = Cytotoxicity against Chlorocebus aethiops (African green monkey) Vero 76 cells assessed as inhibition of cell viability after 48 to 120 hr by MTT assay; assay type: cell-based; details: chlorocebus sabaeus
Poliovirus 1 = test: Antiviral activity against Human poliovirus 1 strain Sabin infected African green monkey Vero 76 cells assessed as reduction in plaque number treated after viral infection measured after 2 days by plaque reduction assay; assay type: functional, organism-based; details: Enterovirus C, 48 h
Human alphaherpesvirus 1 = test: Antiviral activity against Human herpesvirus 1 infected African green monkey Vero 76 cells assessed as reduction in plaque number treated after viral infection measured after 3 days by plaque reduction assay; assay type: functional, organism-based; details: Human alphaherpesvirus 1, Vero, 72 h
[9] = Cytotoxicity against Mesocricetus auratus (Syrian golden hamster) BHK21cells assessed as inhibition of cell viability after 48 to 120 hr by MTT assay; assay type: cell-based; details: BHK-21 cells
Vaccinia virus = test: Antiviral activity against Vaccinia virus infected African green monkey Vero 76 cells assessed as reduction in plaque number treated after viral infection measured after 3 days by plaque reduction assay; assay type: functional, organism-based; details: Orthopoxvirus vaccinia, 72 h
[10] = test system: Mammalian orthoreovirus 1; test: Antiviral activity against Mammalian orthoreovirus 1 infected Syrian hamster BHK-21 cells assessed as protection against virus-induced cytopathogenicity treated 1 hr after viral infection measured after 3-4 days by MTT method; assay type: functional, organism-based; details: Mammalian orthoreovirus 1, BHK-21

**Q.** With Clc1cccc(-c2nnc3nnc4c5ccccc5[nH]c4n23)c1 as the compound, how does the EC50 [1] read?
**A.** > 60 µM

**Q.** What about the EC50 [2] of the same compound?
**A.** 69 µM

**Q.** And the “Ratio CC50/EC50” value [3]?
**A.** >1.45

**Q.** And the EC50 (Yellow fever virus)?
**A.** > 55 µM

**Q.** What about the CC50 at 96 h [4] of the same compound?
**A.** 29 µM

**Q.** What about the EC50 (Coxsackievirus B2) of the same compound?
**A.** > 60 µM

**Q.** What about the CC50 [5] of the same compound?
**A.** > 100 µM

**Q.** What about the EC50 [6] of the same compound?
**A.** > 60 µM

**Q.** And the EC50 [7]?
**A.** > 29 µM

**Q.** And the CC50 [8]?
**A.** 60 µM

**Q.** And the EC50 (Poliovirus 1)?
**A.** > 60 µM

**Q.** What about the EC50 (Human alphaherpesvirus 1) of the same compound?
**A.** > 60 µM

**Q.** And the CC50 [9]?
**A.** 55 µM

**Q.** And the EC50 (Vaccinia virus)?
**A.** > 60 µM

**Q.** And the EC50 [10]?
**A.** > 55 µM

**Q.** For COc1cc(-c2nnc3nnc4c5ccccc5[nH]c4n23)ccc1O, which EC50 [1] is on record?
**A.** > 80 µM

**Q.** What about the EC50 [2] of the same compound?
**A.** 90 µM

**Q.** And the “Ratio CC50/EC50” value [3]?
**A.** >1.11

**Q.** What about the EC50 (Yellow fever virus) of the same compound?
**A.** > 45 µM

**Q.** What about the CC50 at 96 h [4] of the same compound?
**A.** 58 µM

**Q.** And the EC50 (Coxsackievirus B2)?
**A.** > 80 µM

**Q.** What about the CC50 [5] of the same compound?
**A.** > 100 µM

**Q.** What about the EC50 [6] of the same compound?
**A.** > 80 µM

**Q.** And the EC50 [7]?
**A.** > 58 µM

**Q.** And the CC50 [8]?
**A.** 80 µM

**Q.** And the EC50 (Poliovirus 1)?
**A.** > 80 µM

**Q.** And the EC50 (Human alphaherpesvirus 1)?
**A.** > 80 µM

**Q.** And the CC50 [9]?
**A.** 45 µM

**Q.** What about the EC50 (Vaccinia virus) of the same compound?
**A.** > 80 µM

**Q.** What about the EC50 [10] of the same compound?
**A.** 25 µM

**Q.** Which results are given for c1ccc2c(-c3nnc4nnc5c6ccccc6[nH]c5n34)c3ccccc3cc2c1?
**A.** EC50 [1]: > 100 µM; EC50 [2]: 3 µM; Ratio CC50/EC50 [3]: >33.33; CC50 at 96 h [4]: 56 µM; EC50 (Coxsackievirus B2): > 100 µM; CC50 [5]: > 100 µM; EC50 [7]: > 56 µM; CC50 [8]: ≥ 100 µM; EC50 (Human alphaherpesvirus 1): > 100 µM; CC50 [9]: > 100 µM; EC50 [10]: > 100 µM
